Laboratory results published in patent US20200399264A1, “4-SUBSTITUTED-2-THIAZOLE AMIDES AS ANTIVIRAL AGENTS” (Southern Research Institute, priority 2019, published 2020).

What was measured:
[1] = cell cytotoxicity in a cell viability assay (CC50); format: cell-based; details: concentration required for 50% cell survival
Text: As used herein, “CC50,” is intended to refer to the cell cytotoxicity to the concentration of a substance (e.g., a compound or a drug) that is required for 50% cell survival in a cell viability assay in vitro.

CHIKV = assay: antiviral activity against CHIKV (VTR and EC90); format: cell-based; details: Chikungunya virus; for log reduction at 10 µM: read-out: VTR @ 10 μM (logs)
Text: As used herein, “EC90,” is intended to refer to the concentration of a substance (e.g., a compound or a drug) that is required for 90% agonism of a biological process, or component of a process, including a protein, subunit, organelle, ribonucleoprotein, etc. In one aspect, an EC90 can refer to the concentration of a substance that is required for 90% agonism in vivo, as further defined elsewhere herein. In a further aspect, […].

Row | Compound | CC50 [1] | EC90 (CHIKV) | log reduction at 10 µM (CHIKV)
1 | CSc1ncccc1C(=O)Nc1nc(-c2cccc(-c3ccc(CN)cc3)c2)cs1 [Compound 26, N-(4-(4′-(aminomethyl)-[1,1′-biphenyl]-3-yl)thiazol-2-yl)-2-(methylthio)nicotinamide] | > 40 µM | 0.75 µM | 8.75
2 | CC(C)(C)c1ccc(C(=O)Nc2nc(-c3cccc(-c4ccc(CN)cc4)c3)cs2)cc1 [Compound 27, N-(4-(4′-(Aminomethyl)-[1,1′-biphenyl]-3-yl)thiazol-2-yl)-4-(tert-butyl)benzamide] | 9.02 µM | 1.27 µM | 5.24
3 | COc1ncc(-c2cccc(-c3csc(NC(=O)c4cccnc4SC)n3)c2)cn1 [Compound 28, N-(4-(3-(2-Methoxypyrimidin-5-yl)phenyl)thiazol-2-yl)-2-(methylthio)nicotinamide] | > 40 µM | – | 2.52
4 | CSc1ncccc1C(=O)Nc1nc(-c2cccc(-n3ccnc3)c2)cs1 [Compound 29, N-(4-(3-(1H-imidazol-1-yl)phenyl)thiazol-2-yl)-2-(methylthio)nicotinamide] | > 40 µM | 0.27 µM | 1.39
5 | CC(C)(C)c1ccc(C(=O)Nc2nc(-c3cccc(N4CCNCC4)c3)cs2)cc1 [Compound 30, 4-(Tert-Butyl)-N-(4-(3-(piperazin-1-yl)phenyl)thiazol-2-yl)benzamide] | 4.1 µM | – | 5.57
6 | CSc1ncccc1C(=O)Nc1nc(-c2cccc(N3CCNCC3)c2)cs1 [Compound 31, 2-(Methylthio)-N-(4-(3-(piperazin-1-yl)phenyl)thiazol-2-yl)nicotinamide] | > 30 µM | 9.1 µM | 8.69
7 | CSc1ncccc1C(=O)Nc1nc(-c2cccc(N3CCN(C(C)=O)CC3)c2)cs1 [Compound 32, N-(4-(3-(4-acetylpiperazin-1-yl)phenyl)thiazol-2-yl)-2-(methylthio)nicotinamide] | > 40 µM | – | < 1
8 | CSc1ncccc1C(=O)Nc1nc(-c2cccc(N3CCN(S(C)(=O)=O)CC3)c2)cs1 [Compound 33, N-(4-(3-(4-(methylsulfonyl)piperazin-1-yl)phenyl)thiazol-2-yl)-2-(methylthio)nicotinamide] | > 40 µM | – | 2.04
9 | CSc1ncccc1C(=O)Nc1nc(-c2cccc(N3CCOCC3)c2)cs1 [Compound 34, 2-(Methylthio)-N-(4-(3-morpholinophenyl)thiazol-2-yl)nicotinamide] | > 40 µM | – | 1.88
10 | CSc1ncccc1C(=O)Nc1nc(-c2cccc(N3CCCC3=O)c2)cs1 [Compound 35, 2-(Methylthio)-N-(4-(3-(2-oxopyrrolidin-1-yl)phenyl)thiazol-2-yl)nicotinamide] | 39.4 µM | – | < 1
11 | CSc1ncccc1C(=O)Nc1nc(-c2cccc(Oc3ccccc3)c2)cs1 [Compound 36, 2-methylsulfanyl-N-[4-(3-phenoxyphenyl)thiazol-2-yl]pyridine-3-carboxamide] | > 40 µM | – | 4.87
12 | CSc1ncccc1C(=O)Nc1nc(-c2cccc(Nc3ccc(C#N)cc3)c2)cs1 [Compound 37, N-(4-(3-((4-Cyanophenyl)amino)phenyl)thiazol-2-yl)-2-(methylthio)nicotinamide] | > 40 µM | 0.45 µM | 8.68
13 | CSc1ncccc1C(=O)Nc1nc(-c2cccc(Nc3cccc(C#N)c3)c2)cs1 [Compound 38, N-(4-(3-((3-Cyanophenyl)amino)phenyl)thiazol-2-yl)-2-(methylthio)nicotinamide] | > 40 µM | 0.15 µM | 5.72
14 | CSc1ncccc1C(=O)Nc1nc(-c2cccc(Nc3ccccc3C#N)c2)cs1 [Compound 39, N-(4-(3-((2-Cyanophenyl)amino)phenyl)thiazol-2-yl)-2-(methylthio)nicotinamide] | > 40 µM | 0.5 µM | 5.23
15 | CSc1ncccc1C(=O)Nc1nc(-c2cccc(Nc3cccc(C(F)(F)F)c3)c2)cs1 [Compound 40, 2-(Methylthio)-N-(4-(3-((3-(trifluoromethyl)phenyl)amino)phenyl)thiazol-2-yl)nicotinamide] | > 40 µM | 3.1 µM | 5.36
16 | CC(C)(C)c1ccc(C(=O)Nc2nc(-c3cccc(Nc4ccc(C#N)cc4)c3)cs2)nc1 [Compound 41, 5-(Tert-Butyl)-N-(4-(3-((4-cyanophenyl)amino)phenyl)thiazol-2-yl)picolinamide] | > 40 µM | > 10 µM | 0.82
17 | N#Cc1ccc(Nc2cccc(-c3csc(NC(=O)C45CC(C(=O)O)(C4)C5)n3)c2)cc1 [Compound 42, 3-((4-(3-((4-Cyanophenyl)amino)phenyl)thiazol-2-yl)carbamoyl)bicyclo[1.1.1]pentane-1-carboxylic Acid] | > 40 µM | > 10 µM | 0
18 | COC(=O)C12CC(C(=O)Nc3nc(-c4cccc(Nc5ccc(C#N)cc5)c4)cs3)(C1)C2 [Compound 43, Methyl 3-((4-(3-((4-cyanophenyl)amino)phenyl)thiazol-2-yl)carbamoyl)bicyclo[1.1.1]pentane-1-carboxylate] | 13 µM | 10.1 µM | 0.74
19 | CC(C)(C#N)c1ccc(C(=O)Nc2nc(-c3cccc(Nc4ccc(C#N)cc4)c3)cs2)cc1 [Compound 44, N-(4-(3-((4-cyanophenyl)amino)phenyl)thiazol-2-yl)-4-(2-cyanopropan-2-yl)benzamide] | > 40 µM | 0.98 µM | 2.65
20 | CSc1ncccc1C(=O)Nc1nc(-c2cccc(Nc3ccc(CN)cc3)c2)cs1 [Compound 45, N-(4-(3-((4-(aminomethyl)phenyl)amino)phenyl)thiazol-2-yl)-2-(methylthio)nicotinamide] | 12.8 µM | 5.8 µM | 1.23
21 | COc1cc(Nc2cccc(-c3csc(NC(=O)c4cccnc4SC)n3)c2)ccc1C#N [Compound 46, N-(4-(3-((4-yano-3-methoxyphenyl)amino)phenyl)thiazol-2-yl)-2-(methylthio)nicotinamide] | > 40 µM | 0.34 µM | 5.06
22 | CSc1ncccc1C(=O)Nc1nc(-c2cc(Nc3ccc(C#N)cc3)cc(N3CCOCC3)c2)cs1 [Compound 47, N-(4-(3-((4-cyanophenyl)amino)-5-morpholinophenyl)thiazol-2-yl)-2-(methylthio)nicotinamide] | > 40 µM | 0.1 µM | 5.14
23 | CSc1ncccc1C(=O)Nc1nc(-c2cccc(Nc3ccc(C)c(C#N)c3)c2)cs1 [Compound 48, N-(4-(3-((3-cyano-4-methylphenyl)amino)phenyl)thiazol-2-yl)-2-(methylthio)nicotinamide] | > 40 µM | 0.89 µM | 4.52
24 | CSc1ncccc1C(=O)Nc1nc(-c2cc(Cl)cc(Nc3ccc(C#N)cc3)c2)cs1 [Compound 49, N-(4-(3-chloro-5-((4-cyanophenyl)amino)phenyl)thiazol-2-yl)-2-(methylthio)nicotinamide] | > 40 µM | 0.21 µM | 5.84
25 | COC1CCC(C(=O)Nc2nc(-c3cccc(Nc4ccc(C#N)cc4)c3)cs2)CC1 (centres unmarked) [Compound 50, N-(4-(3-((4-cyanophenyl)amino)phenyl)thiazol-2-yl)-4-methoxycyclohexane-1-carboxamide] | 12.4 µM | 0.1 µM | 4.53
26 | CSc1ncccc1C(=O)Nc1nc(-c2cccc(Nc3ccc(C#N)cn3)c2)cs1 [Compound 51, N-(4-(3-((5-cyanopyridin-2-yl)amino)phenyl)thiazol-2-yl)-2-(methylthio)nicotinamide] | > 40 µM | 4.84 µM | 2.16
27 | N#Cc1ccc(Nc2cccc(-c3csc(NC(=O)C45CC(C#N)(C4)C5)n3)c2)cc1 [Compound 52, 3-cyano-N-(4-(3-((4-cyanophenyl)amino)phenyl)thiazol-2-yl)bicyclo[1.1.1]pentane-1-carboxamide] | 9 µM | 1.5 µM | 5.58
